This note sets out measurements from article PMC12621189, “Optimization of Selective and CNS Penetrant Alkyne-Based TREK Inhibitors: The Discovery and Characterization of ONO-9517601 (VU6022856) and ONO-7927846 (VU6024391)” (Journal of Medicinal Chemistry, 2025).

By pIC50 is commonly meant the negative decadic logarithm of the IC50, by convention in mol/L. As usually defined, the inhibition is the relative decrease from the control value, in per cent. Read a low inhibition as little suppression. Broadly, the Cmax is the maximum level reached in the sampled fluid or tissue.

One data set addresses T1, adenosine A3 (Homo sapiens, UniProt P0DMS8).
T1 construct: purchased Eurofins
T1 sequence (P0DMS8 1-318): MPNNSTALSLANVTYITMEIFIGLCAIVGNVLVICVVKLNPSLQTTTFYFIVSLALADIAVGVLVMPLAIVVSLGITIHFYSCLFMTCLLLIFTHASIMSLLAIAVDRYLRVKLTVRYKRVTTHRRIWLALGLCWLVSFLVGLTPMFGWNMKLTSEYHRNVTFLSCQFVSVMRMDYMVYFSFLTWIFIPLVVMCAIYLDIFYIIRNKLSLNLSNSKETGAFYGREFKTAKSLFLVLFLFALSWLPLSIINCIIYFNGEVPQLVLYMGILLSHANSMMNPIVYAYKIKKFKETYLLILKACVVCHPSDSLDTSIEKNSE
The data set is described as follows: Radioligand binding, adenosine A3. As to conditions: for pIC50: follow-up binding; for inhibition at 10 µM: radioligand binding displacement.

Data set [1] can be described thus: IV/PO pharmacokinetic study, rat (SD). The settings on record: for clearance / Vd / half-life / Cmax: Sprague-Dawley, plasma; for clearance / Vd / half-life: iv 1 mg/kg; for clearance: read-out: CLp; for Vd: read-out: Vss; for half-life: read-out: elimination t1/2 (converted); for Cmax / F (%) po: po 1 mg/kg. Format: in vivo.
The nature of data set [2]: Plasma protein binding, human (equilibrium dialysis). Type of data set: in vitro ADME. As to conditions: pH 7.4, read-out: PPB human (converted). On the procedure: Plasma protein binding and Brain homogenate binding: Determination of fraction unbound (f u) in plasma was conducted in vitro via equilibrium dialysis using HTDialysis (HTD) membrane plates. The top half of the plate was filled with 100 uL of Dubelco’s Phosphate Buffered Saline, pH 7.4 (DPBS). Compounds were diluted into plasma from each species (5 µM final concentration), which was aliquoted in triplicate to the ‘bottom half’ of the prepared HTD plate wells. The HTD plate was sealed and incubated for 6 hours at 37 °C. Following incubation, each well (both top and bottom halves) were transferred (20 µL) to the corresponding wells of a 96-shallow-well (V-bottom) plate. The daughter plates were then matrix-matched (DPBS side wells received equal volume of plasma, and plasma side wells received equal volume of DPBS), and extraction solution (120 µL; acetonitrile containing 50 nM carbamazepine as IS) was added to all wells of both daughter plates to precipitate protein and extract test article. The plates were then sealed and centrifuged (3500 rcf) for 10 minutes at ambient temperature. Supernatant (60 µL) from each well of the daughter plates was then transferred to the corresponding wells of new daughter plates (96-shallow-well, V bottom) containing water (Milli-Q, 60 µL/well), and the plates were sealed in preparation for LC-MS/MS analysis (see LC-MS/MS analysis method below).
The unbound fraction (f u) was calculated following the equation below, and mean values for each species were calculated from 3 replicates. […]
Fraction unbound for both plasma and brain samples was determined using Equation 4.
Equation 4 Determination of fraction unbound in plasma. […]
On the technique in general: In equilibrium dialysis free small molecules cross a membrane that holds back macromolecules.

Another data set relates to MK-801 challenged mouse. The experiment in a line: MK-801 challenge novel object recognition (NOR), mouse. Format: in vivo. As to conditions: dosed orally, data not shown. As for the experimental part: Brain plasma concentration ratio (Kp) was calculated by dividing brain concentration by plasma concentration for each animal. Unbound brain to unbound plasma concentration ratio (Kp,uu) is calculated using the following formula: Kp,uu = (Brain ng/g x brain fu)/(plasma ng/ml x plasma fu).
In-vitro determination of blood-brain barrier penetration potential
Blood-brain barrier penetration was determined using MDR1-MDCK cell monolayers by Absorption Systems, following their protocol. In short, compounds were incubated at […] final concentration on one side of the cell monolayer for 2 hours. Compounds concentration on either side of the monolayer was determined by LC-MS/MS and apparent permeability and efflux ratio were determined as described in Wang, Q. et al.1
MK-801 induced novel object recognition test […]
Behavioral analysis: An observer blinds to treatment condition and novel object location used the video recordings to score the interaction of the animal with the two objects offline. The duration an animal explored each object was determined as the total time an animal is facing the object with its nose being ≦ 2 cm away from the object and some discernible whisker movement […]
Data Analysis: Statistical analyses can be performed using EXSUS ver 8.1 (CAC Croit Corporation). The vehicle and compound-treated groups were analyzed by one-way ANOVA followed by Dunnett's test. […]

pIC50: −log10 of the molar value.

Take `CC(=O)N1CCC(n2ncc(Cl)c2C(=O)Nc2ncc(C#Cc3ccccc3)cc2C)CC1` [Compound 10, 1-(1-Acetylpiperidin-4-yl)-4-chloro-N-(3-methyl-5-(phenylethynyl)pyridin-2-yl)-1H-pyrazole-5-carboxamide]: at adenosine A3, the pIC50 is 6.42 and at 10 µM the inhibition was 98%. In addition, in data set [1], the clearance stood at 30 mL/min/kg, the Vd is 2.2 L/kg, the half-life is 1 h and the Cmax was determined as 80 ng/mL. In addition, in data set [1], the “F (%) po” value is given as 40%. Besides, the fraction unbound at 6 h, 5 µM in data set [2] is 0.01. The “MED in the NOR cognition assay, MK-801 challenged mouse” value in the data set with MK-801 challenged mouse is recorded as 1 mg/kg.
At adenosine A3, `CC(=O)N1CC[C@@H](n2ncc(Cl)c2C(=O)Nc2ncc(C#Cc3ccc(F)cc3)cc2C)[C@H](F)C1` [Compound 11, 1-((3R,4R)-1-Acetyl-3-fluoropiperidin-4-yl)-4-chloro-N-(5-((4-fluorophenyl)ethynyl)-3-methylpyridin-2-yl)-1H-pyrazole-5-carboxamide] had a pIC50 of 6.11 and an inhibition at 10 µM of 91%. In data set [1], the clearance amounted to 6.1 mL/min/kg, the Vd was determined as 2.7 L/kg, the half-life was 5.5 h and the highest level (Cmax) was 162 ng/mL. Besides, the “F (%) po” value in data set [1] was determined as 57%. Moreover, the fraction unbound at 6 h, 5 µM in data set [2] is 0.048. In addition, the “MED in the NOR cognition assay, MK-801 challenged mouse” value with MK-801 challenged mouse is reported as 3 mg/kg.
